System: SK-N-SH human neuroblastoma cells
Assay: Serum Deprivation/JC-1 Mitochondrial Membrane Potential (MMP) Assay
Assay type: cell-based
Details: Homo sapiens, SK-N-SH; for EC50: 18 h, serum deprivation ~18 hours, JC-1 ratio normalized to peak value for 10 μM dimebolin, single curve fit to mean data of n=2-3; for Emax: percent maximal intensity in JC-1 ratio normalized to peak value for 10 μM dimebolin, serum deprivation, read-out: JC-1 max %
From the text: The method also involves a high-throughput assay using serum-deprivation conditions involving neuronal cells to screen for compounds that increase or preserve mitochondrial membrane potential. Such compounds can be found to aid in rescuing cells from energy-depletion that occurs in several neurodegenerative states. Mitochondrial-mediated apoptosis occurs in response to a wide range of apoptotic stimuli including p^53, c-myc, DNA damage, prooxidants, chemotherapeutic agents, serum starvation and death receptor activation (Lin C—H., Lu Y-Z., Cheng, F-C., Chu L-F. and Hsuch C-M. Bax-regulated mitochondrial-mediated apoptosis is responsible for the in vitro ischemia induced neuronal cell death of Sprague Dawley rat. Neuroscience Lett. 2005, 387, 22-27).
Thus, this stress inducer, serum deprivation, combined with monitoring changes in the mitochondrial membrane potential in a 96-well format allows for the establishment of an efficient high-throughput screen (HTS) in order to evaluate the ability of compounds to increase mitochondrial membrane potential in the presence of stress and preserve health of the cell. Exemplary procedures for conducting such high-throughput assay are provided below.
SK-N-SH human neuroblastoma cells obtained from American Type Culture Collection (Rockville, Md.) were maintained in the log phase of growth in Minimal Essential Media (MEM), 10% heat inactivated fetal calf serum and 100 units/mL antibiotic-antimycotic (AA). Cells were cultured and maintained in a humidified incubator at 37° C. under 5% CO2 and 95% air. Cells were trypsinized (0.25%) and subcultured every 3 days and used from 15-18 passages. All cell culture supplies were obtained from Invitrogen (Carlsbad, Calif.).
SK-N-SH cells were plated 2-3 days in advance at a concentration of 50,000 cells/well onto collagen coated black-walled 96 well plates (Becton-Dickinson, Bedford, Mass.) in a total volume of […]. On day of experimental treatment, the media containing serum was aspirated from each well and rinsed once with MEM/1% AA without serum. The cells then were incubated overnight in 100 μL of MEM/1% AA (no serum) with and without dimebolin or novel chemical entities overnight for ˜18 hours. The following day, JC-1 dye (5,5′,6,6′-tetrachloro-1,1′,3,3′-tetraethylbenzimidazolcarbocyanide) was diluted 1:10 into MEM media according to the JC-1 Mitochondrial Membrane Potential Assay Kit: (Cayman Chemical Company, Ann Arbor, Mich.) and then 10 μL of the JC-1 dye solution was added to each well. The plates were centrifuged for 5 minutes at 400×g at room temperature followed by 40 minute incubation at 37° C. The plates were washed twice with 200 μL of provided Assay Buffer followed an addition of 100 μL of Assay Buffer to each well. The plates were read with an excitation and emission of 560 nm and 595 nM for red fluorescence and with an excitation and emission of 485 nm and 535 nM for green fluorescence to determine the final JC-1 value taking the red to green fluorescence ratio. This assay is based on change in mitochondrial membrane potential (MMP) using this lipophilic cationic dye, JC-1, by monitoring the changes in the ratio of red to green fluorescence as the MMP depolarizes. This change in MMP reflects the health of the cell with healthy, viable cells have a high JC-1 ratio and high MMP whereas apoptotic, unhealthy cells have a low JC-1 ratio or low MMP.
For the ability of compounds to reverse the stress due to serum deprivation and increase the JC-1 ratio, the percent maximal intensity in JC-1 ratio was normalized to that induced by the peak value for 10 μM dimebolin and plotted against the compound concentration to calculate EC50 values and to control for plate-to-plate variability. Concentration-response data were analyzed using GraphPad Prism (San Diego, Calif.); the EC50 values were derived from a single curve fit to the mean data of n=2-3, in duplicates. […]

SMILES	EC50 [µM]	Emax [%]
c1ccc(CN2CCN3c4ccccc4NCCC3C2)cc1 (stereo not drawn) [Example 26, 3-benzyl-1,2,3,4,4a,5,6,7-octahydropyrazino[1,2-a][1,5]benzodiazepine]	3.47	210
O=C(Cc1ccc(Cl)cc1)N1CCC2CN(Cc3ccccc3)CCN2c2ccccc21 (stereo not drawn) [Example 27, 1-(3-benzyl-2,3,4,4a,5,6-hexahydropyrazino[1,2-a][1,5]benzodiazepin-7(1H)-yl)-2-(4-chlorophenyl)ethanone]	4.44	149
c1ccc(CN2CCN3c4ccccc4CN(Cc4cccnc4)CC3C2)cc1 (stereo not drawn) [Example 28, 3-benzyl-6-(pyridin-3-ylmethyl)-1,2,3,4,4a,5,6,7-octahydropyrazino[1,2-a][1,4]benzodiazepine]	9.59	88
c1ccc(CN2CCN3c4ccccc4CN(Cc4ccccn4)CC3C2)cc1 (stereo not drawn) [Example 29, 3-benzyl-6-(pyridin-2-ylmethyl)-1,2,3,4,4a,5,6,7-octahydropyrazino[1,2-a][1,4]benzodiazepine]	4.87	221
c1ccc(CN2CCN3c4ccccc4CN(Cc4ccncc4)CC3C2)cc1 (stereo not drawn) [Example 30, 3-benzyl-6-(pyridin-4-ylmethyl)-1,2,3,4,4a,5,6,7-octahydropyrazino[1,2-a][1,4]benzodiazepine]	3.6	216
O=C(c1ccc(Br)cc1)N1Cc2ccccc2N2CCN(Cc3ccccc3)CC2C1 (stereo not drawn) [Example 31, (3-benzyl-1,2,3,4,4a,5-hexahydropyrazino[1,2-a][1,4]benzodiazepin-6(7H)-yl)(4-bromophenyl)methanone]	1.97	218
Cc1ccc(CN2Cc3ccccc3N3CCN(Cc4ccccc4)CC3C2)cn1 (stereo not drawn) [Example 32, 3-benzyl-6-[(6-methylpyridin-3-yl)methyl]-1,2,3,4,4a,5,6,7-octahydropyrazino[1,2-a][1,4]benzodiazepine]	1.98	140
c1ccc(CN2CCN3c4ccccc4CN(Cc4cnc5ccccc5c4)CC3C2)cc1 (stereo not drawn) [Example 33, 3-benzyl-6-(quinolin-3-ylmethyl)-1,2,3,4,4a,5,6,7-octahydropyrazino[1,2-a][1,4]benzodiazepine]	1.3	192
Clc1ccc(CN2Cc3ccccc3N3CCN(Cc4ccccc4)CC3C2)cn1 (stereo not drawn) [Example 34, 3-benzyl-6-[(6-chloropyridin-3-yl)methyl]-1,2,3,4,4a,5,6,7-octahydropyrazino[1,2-a][1,4]benzodiazepine]	2.94	213
FC(F)(F)c1ccc(CN2Cc3ccccc3N3CCN(Cc4ccccc4)CC3C2)cn1 (stereo not drawn) [Example 35, 3-benzyl-6-{[6-(trifluoromethyl)pyridin-3-yl]methyl}-1,2,3,4,4a,5,6,7-octahydropyrazino[1,2-a][1,4]benzodiazepine]	2.86	159
c1ccc(CN2CCN3c4ccccc4CN(Cc4ccnc5ccccc45)CC3C2)cc1 (stereo not drawn) [Example 36, 3-benzyl-6-(quinolin-4-ylmethyl)-1,2,3,4,4a,5,6,7-octahydropyrazino[1,2-a][1,4]benzodiazepine]	1.05	137
c1ccc(CN2CCN3c4ccccc4CN(Cc4cncc5ccccc45)CC3C2)cc1 (stereo not drawn) [Example 37, 3-benzyl-6-(isoquinolin-4-ylmethyl)-1,2,3,4,4a,5,6,7-octahydropyrazino[1,2-a][1,4]benzodiazepine]	1.21	172
O=C1NCc2ccccc2N2CCN(Cc3ccc(F)cc3)CC12 (stereo not drawn) [Example 38, 3-(4-fluorobenzyl)-2,3,4,4a,6,7-hexahydropyrazino[1,2-a][1,4]benzodiazepin-5(1H)-one]	> 30	27
Brc1ccc(CN2Cc3ccccc3N3CCN(Cc4ccccc4)CC3C2)cn1 (stereo not drawn) [Example 39, 3-benzyl-6-[(6-bromopyridin-3-yl)methyl]-1,2,3,4,4a,5,6,7-octahydropyrazino[1,2-a][1,4]benzodiazepine]	3.69	200
Fc1ccc(CN2CCN3c4ccccc4CNCC3C2)cc1 (stereo not drawn) [Example 40, 3-(4-fluorobenzyl)-1,2,3,4,4a,5,6,7-octahydropyrazino[1,2-a][1,4]benzodiazepine]	11.8	224
O=C(c1ccc(Br)cc1)N1CCC2CN(Cc3ccccc3)CCN2c2ccccc21 (stereo not drawn) [Example 41, (3-benzyl-2,3,4,4a,5,6-hexahydropyrazino[1,2-a][1,5]benzodiazepin-7(1H)-yl)(4-bromophenyl)methanone]	4.67	186
Brc1ccc(CN2Cc3ccccc3N3CCN(Cc4ccccc4)CC3C2)nc1 (stereo not drawn) [Example 42, 3-benzyl-6-[(5-bromopyridin-2-yl)methyl]-1,2,3,4,4a,5,6,7-octahydropyrazino[1,2-a][1,4]benzodiazepine]	3.09	189
O=C(c1ccncc1)N1CCC2CN(Cc3ccccc3)CCN2c2ccccc21 (stereo not drawn) [Example 43, (3-benzyl-2,3,4,4a,5,6-hexahydropyrazino[1,2-a][1,5]benzodiazepin-7(1H)-yl)(pyridin-4-yl)methanone]	6.76	115
Clc1ccc(CCN2CCC3CN(Cc4ccccc4)CCN3c3ccccc32)cc1 (stereo not drawn) [Example 44, 3-benzyl-7-[2-(4-chlorophenyl)ethyl]-1,2,3,4,4a,5,6,7-octahydropyrazino[1,2-a][1,5]benzodiazepine]	3	291
c1ccc(CN2CCN3c4ccccc4N(Cc4ccccc4)CCC3C2)cc1 (stereo not drawn) [Example 45, 3,7-dibenzyl-1,2,3,4,4a,5,6,7-octahydropyrazino[1,2-a][1,5]benzodiazepine]	5.93	238
Ic1ccc(CN2Cc3ccccc3N3CCN(Cc4ccccc4)CC3C2)cc1 (stereo not drawn) [Example 46, 3-benzyl-6-(4-iodobenzyl)-1,2,3,4,4a,5,6,7-octahydropyrazino[1,2-a][1,4]benzodiazepine]	1.87	192
Brc1ccc(CN2CCC3CN(Cc4ccccc4)CCN3c3ccccc32)cc1 (stereo not drawn) [Example 47, 3-benzyl-7-(4-bromobenzyl)-1,2,3,4,4a,5,6,7-octahydropyrazino[1,2-a][1,5]benzodiazepine]	2.78	273
c1ccc(CN2CCN3c4ccccc4N(Cc4ccncc4)CCC3C2)cc1 (stereo not drawn) [Example 48, 3-benzyl-7-(pyridin-4-ylmethyl)-1,2,3,4,4a,5,6,7-octahydropyrazino[1,2-a][1,5]benzodiazepine]	1.84	125
CN1CCC2CN(Cc3ccccc3)CCN2c2ccccc21 (stereo not drawn) [Example 49, 3-benzyl-7-methyl-1,2,3,4,4a,5,6,7-octahydropyrazino[1,2-a][1,5]benzodiazepine]	10.4	128
Oc1ccc(CN2Cc3ccccc3N3CCN(Cc4ccccc4)CC3C2)cc1 (stereo not drawn) [Example 50, 4-[(3-benzyl-1,2,3,4,4a,5-hexahydropyrazino[1,2-a][1,4]benzodiazepin-6(7H)-yl)methyl]phenol]	5.95	240
O=C1CC2CN(Cc3ccccc3)CCN2c2ncccc2N1 (stereo not drawn) [Example 51, 9-benzyl-7,7a,8,9,10,11-hexahydropyrazino[1,2-d]pyrido[3,2-b][1,4]diazepin-6(5H)-one]	8.83	68
c1ccc(CN2CCN3c4ncccc4NCCC3C2)cc1 (stereo not drawn) [Example 52, 9-benzyl-5,6,7,7a,8,9,10,11-octahydropyrazino[1,2-d]pyrido[3,2-b][1,4]diazepine]	5.97	100
